{
  "source": "the NIST ThermoML archive (doi:10.1021/acs.jced.7b00321)",
  "details": "101 kPa, Liquid; for viscosity: Capillary tube (Ostwald / Ubbelohde) method; for mass density: Vibrating tube method",
  "note": "Numbers after ± are expanded uncertainties.",
  "data": [
    {"smiles": "CC(O)CN", "note": "(stereo not given) [1-amino-2-propanol]", "values": [
      {"measurement": "viscosity", "setting": "293.15 K", "value": "30.44 ± 0.65", "unit": "mPa·s"},
      {"measurement": "mass density", "setting": "293.15 K", "value": "960.81 ± 1", "unit": "kg/m3"},
      {"measurement": "viscosity", "setting": "303.15 K", "value": "17.87 ± 0.39", "unit": "mPa·s"},
      {"measurement": "mass density", "setting": "303.15 K", "value": "952.25 ± 1", "unit": "kg/m3"},
      {"measurement": "viscosity", "setting": "313.15 K", "value": "10.79 ± 0.23", "unit": "mPa·s"},
      {"measurement": "mass density", "setting": "313.15 K", "value": "944.43 ± 1", "unit": "kg/m3"},
      {"measurement": "viscosity", "setting": "323.15 K", "value": "6.99 ± 0.15", "unit": "mPa·s"},
      {"measurement": "mass density", "setting": "323.15 K", "value": "936.21 ± 1", "unit": "kg/m3"}
    ]},
    {"smiles": "NCCCO", "note": "[3-amino-1-propanol]", "values": [
      {"measurement": "viscosity", "setting": "293.15 K", "value": "40.26 ± 0.86", "unit": "mPa·s"},
      {"measurement": "mass density", "setting": "293.15 K", "value": "987.5 ± 1", "unit": "kg/m3"},
      {"measurement": "viscosity", "setting": "303.15 K", "value": "24.03 ± 0.52", "unit": "mPa·s"},
      {"measurement": "mass density", "setting": "303.15 K", "value": "979.45 ± 1", "unit": "kg/m3"},
      {"measurement": "viscosity", "setting": "313.15 K", "value": "15.08 ± 0.32", "unit": "mPa·s"},
      {"measurement": "mass density", "setting": "313.15 K", "value": "971.67 ± 1", "unit": "kg/m3"},
      {"measurement": "viscosity", "setting": "323.15 K", "value": "10.01 ± 0.22", "unit": "mPa·s"},
      {"measurement": "mass density", "setting": "323.15 K", "value": "963.36 ± 1", "unit": "kg/m3"}
    ]},
    {"smiles": "NCCNCCO", "note": "[N-(2-aminoethyl)ethanolamine]", "values": [
      {"measurement": "viscosity", "setting": "293.15 K", "value": "136.19 ± 3.6", "unit": "mPa·s"},
      {"measurement": "mass density", "setting": "293.15 K", "value": "1029.14 ± 1", "unit": "kg/m3"},
      {"measurement": "viscosity", "setting": "303.15 K", "value": "71.64 ± 1.6", "unit": "mPa·s"},
      {"measurement": "mass density", "setting": "303.15 K", "value": "1021.45 ± 1", "unit": "kg/m3"},
      {"measurement": "viscosity", "setting": "313.15 K", "value": "39.59 ± 0.86", "unit": "mPa·s"},
      {"measurement": "mass density", "setting": "313.15 K", "value": "1014.18 ± 1", "unit": "kg/m3"},
      {"measurement": "viscosity", "setting": "323.15 K", "value": "23.41 ± 0.52", "unit": "mPa·s"},
      {"measurement": "mass density", "setting": "323.15 K", "value": "1006.54 ± 1", "unit": "kg/m3"}
    ]},
    {"smiles": "NCCNCCN", "note": "[di(2-aminoethyl)amine]", "values": [
      {"measurement": "viscosity", "setting": "293.15 K", "value": "6.99 ± 0.15", "unit": "mPa·s"},
      {"measurement": "mass density", "setting": "293.15 K", "value": "951.16 ± 1", "unit": "kg/m3"},
      {"measurement": "viscosity", "setting": "303.15 K", "value": "4.79 ± 0.1", "unit": "mPa·s"},
      {"measurement": "mass density", "setting": "303.15 K", "value": "942.19 ± 1", "unit": "kg/m3"},
      {"measurement": "viscosity", "setting": "313.15 K", "value": "3.45 ± 0.07", "unit": "mPa·s"},
      {"measurement": "mass density", "setting": "313.15 K", "value": "933.93 ± 1", "unit": "kg/m3"},
      {"measurement": "viscosity", "setting": "323.15 K", "value": "2.6 ± 0.06", "unit": "mPa·s"},
      {"measurement": "mass density", "setting": "323.15 K", "value": "925.42 ± 1", "unit": "kg/m3"}
    ]},
    {"smiles": "CCO", "note": "[ethanol]", "values": [
      {"measurement": "viscosity", "setting": "293.15 K", "value": "1.17 ± 0.02", "unit": "mPa·s"},
      {"measurement": "mass density", "setting": "293.15 K", "value": "788.88 ± 1", "unit": "kg/m3"},
      {"measurement": "viscosity", "setting": "303.15 K", "value": "0.97 ± 0.02", "unit": "mPa·s"},
      {"measurement": "mass density", "setting": "303.15 K", "value": "781.69 ± 1", "unit": "kg/m3"},
      {"measurement": "viscosity", "setting": "313.15 K", "value": "0.81 ± 0.02", "unit": "mPa·s"},
      {"measurement": "mass density", "setting": "313.15 K", "value": "772.3 ± 1", "unit": "kg/m3"},
      {"measurement": "viscosity", "setting": "323.15 K", "value": "0.69 ± 0.02", "unit": "mPa·s"},
      {"measurement": "mass density", "setting": "323.15 K", "value": "765.29 ± 1", "unit": "kg/m3"}
    ]}
  ]
}
